Measurements as given in patent publication US20190055279A1, “NOVEL POLYPEPTIDES WITH IMPROVED PROTEOLYTIC STABILITY, AND METHODS OF PREPARING AND USING SAME” (TUFTS UNIVERSITY, priority 2015, published 2019).
Read-outs that look alike come from different tables or passages of the source.

Target: T1, GLP-1R (Homo sapiens, UniProt P43220)
T1 construct: expressed in transfected cells; host or cells: HEK293
Experiment: GLP-1R agonist assay: CRE6x-LUC luciferase reporter in transiently transfected HEK293 cells
Assay type: cell-based
Procedure: Briefly, HEK293 cells were plated at a density of 2−3×10^3 cells per well onto clear-bottom, white, 96-well plates and grown for 2 days to ˜80% confluency. Cells were then transiently transfected by using Lipofectamine reagent (Invitrogen) with cDNA encoding (1) a GPCR (or empty expression vector); (ii) a cAMP-responsive element-luciferase reporter gene (CRE6X-luc), and (iv) β-galactosidase as a control. Cells were incubated with or without the selected peptide agonist in serum-free medium for 6 h. Luciferase activity was quantified by using Steadylite reagent (Perkin-Elmer). A β-galactosidase assay then was performed after adding the enzyme substrate 2-nitrophenyl β-d-galactopyranoside.
Cellular assays for receptor binding and intracellular signaling were carried out with the compounds of the invention. Briefly, HEK 293 cells were transiently transfected with cDNAs encoding (i) GLP-1R (or the empty expression vector), (ii) the CRE6x-LUC reporter gene (which senses cAMP production triggered by receptor stimulation), and (iii) β-galactosidase (as a control for transfection efficiency). After transfection for 24 h, cells were incubated with a peptide at various concentrations (or control/blank) in serum-free medium for 6 h. The cells were then lysed, SteadyLite reagent (PerkinElmer) is added, and luciferase activity is measured in a TopCount NXT HTS plate luminometer. After further incubation with a chromogenic substrate (2-nitrophenyl β-D-galactopyranoside), optical density at 420 nm is determined by spectrophotometry, as a control to correct for interwell transfection variability. Sigmoidal concentration-response curves of GLP-1R ligand activity is calculated to determine potency.
Plotting concentration versus the luciferase activity yielded quantitative parameters for combined binding (potency) and signaling (efficacy) in a single step. […] DPP4 treated peptides: 10 μl of 0.26 mM peptide were incubated with 2 μL DPP4 in buffer ±DMSO for 18 hrs. Control peptides: 10 μl of 0.26 mM peptide was added to buffer ±DMSO. The final DMSO concentration was the same for all peptides and all peptides were diluted to 0.26 mM concentrations for the DPP4 assay.

[1] = Receptor GLP-1R, agonist potency, read-out: EC50

T1 sequence (P43220 24-463, species assumed): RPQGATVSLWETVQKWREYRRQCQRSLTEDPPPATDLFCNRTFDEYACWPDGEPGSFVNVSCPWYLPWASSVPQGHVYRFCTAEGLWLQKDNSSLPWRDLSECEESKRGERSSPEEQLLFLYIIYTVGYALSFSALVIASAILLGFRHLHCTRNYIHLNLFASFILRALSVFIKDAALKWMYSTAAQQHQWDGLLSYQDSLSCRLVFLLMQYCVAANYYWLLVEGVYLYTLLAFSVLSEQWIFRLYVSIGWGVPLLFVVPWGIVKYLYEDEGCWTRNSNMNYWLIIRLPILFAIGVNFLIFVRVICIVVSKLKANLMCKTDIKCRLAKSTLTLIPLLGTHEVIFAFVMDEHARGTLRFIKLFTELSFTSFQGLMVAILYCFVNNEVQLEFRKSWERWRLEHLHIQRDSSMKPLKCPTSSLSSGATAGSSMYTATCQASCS

EC50 [1] [pM] | Structure (SMILES) | EC50 [pM]
6.4 | CCN[C@@H](Cc1c[nH]cn1)C(=O)N[C@@H](C)C(=O)N[C@@H](CCC(=O)O)C(=O)NCC(=O)N[C@H](C(=O)N[C@@H](Cc1ccccc1)C(=O)N[C@H](C(=O)N[C@@H](CO)C(=O)N[C@@H](CC(=O)O)C(=O)N[C@H](C(=O)N[C@@H](CO)C(=O)N[C@@H](CO)C(=O)N[C@@H](Cc1ccc(O)cc1)C(=O)N[C@@H](CC(C)C)C(=O)N[C@@H](CCC(=O)O)C(=O)NCC(=O)N[C@@H](CCC(N)=O)C(=O)N[C@@H](C)C(=O)N[C@@H](C)C(=O)N[C@@H](CCCCN)C(=O)N[C@@H](CCC(=O)O)C(=O)N[C@@H](Cc1ccccc1)C(=O)N[C@H](C(=O)N[C@@H](C)C(=O)N[C@@H](Cc1c[nH]c2ccccc12)C(=O)N[C@@H](CC(C)C)C(=O)N[C@H](C(=O)N[C@@H](CCCCN)C(=O)NCC(=O)N[C@@H](CCCNC(=N)N)C(N)=O)C(C)C)[C@@H](C)CC)C(C)C)[C@@H](C)O)[C@@H](C)O | –
4.1 | CC[C@H](C)[C@H](NC(=O)[C@H](Cc1ccccc1)NC(=O)[C@H](CCC(=O)O)NC(=O)[C@H](CCCCN)NC(=O)[C@H](C)NC(=O)[C@H](C)NC(=O)[C@H](CCC(N)=O)NC(=O)CNC(=O)[C@H](CCC(=O)O)NC(=O)[C@H](CC(C)C)NC(=O)[C@H](Cc1ccc(O)cc1)NC(=O)[C@H](CO)NC(=O)[C@H](CO)NC(=O)[C@@H](NC(=O)[C@H](CC(=O)O)NC(=O)[C@H](CO)NC(=O)[C@@H](NC(=O)[C@H](Cc1ccccc1)NC(=O)[C@@H](NC(=O)CNC(=O)[C@H](CCC(=O)O)NC(=O)[C@H](C)NC(=O)[C@H](Cc1c[nH]cn1)NC(C)C)[C@@H](C)O)[C@@H](C)O)C(C)C)C(=O)N[C@@H](C)C(=O)N[C@@H](Cc1c[nH]c2ccccc12)C(=O)N[C@@H](CC(C)C)C(=O)N[C@H](C(=O)N[C@@H](CCCCN)C(=O)NCC(=O)N[C@@H](CCCNC(=N)N)C(N)=O)C(C)C | –
3.9 | CC[C@H](C)[C@H](NC(=O)[C@H](Cc1ccccc1)NC(=O)[C@H](CCC(=O)O)NC(=O)[C@H](CCCCN)NC(=O)[C@H](C)NC(=O)[C@H](C)NC(=O)[C@H](CCC(N)=O)NC(=O)CNC(=O)[C@H](CCC(=O)O)NC(=O)[C@H](CC(C)C)NC(=O)[C@H](Cc1ccc(O)cc1)NC(=O)[C@H](CO)NC(=O)[C@H](CO)NC(=O)[C@@H](NC(=O)[C@H](CC(=O)O)NC(=O)[C@H](CO)NC(=O)[C@@H](NC(=O)[C@H](Cc1ccccc1)NC(=O)[C@@H](NC(=O)CNC(=O)[C@H](CCC(=O)O)NC(=O)[C@H](C)NC(=O)[C@H](Cc1c[nH]cn1)NCC12CC3CC(CC(C3)C1)C2)[C@@H](C)O)[C@@H](C)O)C(C)C)C(=O)N[C@@H](C)C(=O)N[C@@H](Cc1c[nH]c2ccccc12)C(=O)N[C@@H](CC(C)C)C(=O)N[C@H](C(=O)N[C@@H](CCCCN)C(=O)NCC(=O)N[C@@H](CCCNC(=N)N)C(N)=O)C(C)C | –
1 | CC[C@H](C)[C@H](NC(=O)[C@H](Cc1ccccc1)NC(=O)[C@H](CCC(=O)O)NC(=O)[C@H](CCCCN)NC(=O)[C@H](C)NC(=O)[C@H](C)NC(=O)[C@H](CCC(N)=O)NC(=O)CNC(=O)[C@H](CCC(=O)O)NC(=O)[C@H](CC(C)C)NC(=O)[C@H](Cc1ccc(O)cc1)NC(=O)[C@H](CO)NC(=O)[C@H](CO)NC(=O)[C@@H](NC(=O)[C@H](CC(=O)O)NC(=O)[C@H](CO)NC(=O)[C@@H](NC(=O)[C@H](Cc1ccccc1)NC(=O)[C@@H](NC(=O)CNC(=O)[C@H](CCC(=O)O)NC(=O)[C@H](C)NC(=O)[C@H](Cc1c[nH]cn1)NCc1ccc(O)cc1)[C@@H](C)O)[C@@H](C)O)C(C)C)C(=O)N[C@@H](C)C(=O)N[C@@H](Cc1c[nH]c2ccccc12)C(=O)N[C@@H](CC(C)C)C(=O)N[C@H](C(=O)N[C@@H](CCCCN)C(=O)NCC(=O)N[C@@H](CCCNC(=N)N)C(N)=O)C(C)C | –
– | CC[C@H](C)[C@H](NC(=O)[C@H](Cc1ccccc1)NC(=O)[C@H](CCC(=O)O)NC(=O)[C@H](CCCCN)NC(=O)[C@H](C)NC(=O)[C@H](C)NC(=O)[C@H](CCC(N)=O)NC(=O)CNC(=O)[C@H](CCC(=O)O)NC(=O)[C@H](CC(C)C)NC(=O)[C@H](Cc1ccc(O)cc1)NC(=O)[C@H](CO)NC(=O)[C@H](CO)NC(=O)[C@@H](NC(=O)[C@H](CC(=O)O)NC(=O)[C@H](CO)NC(=O)[C@@H](NC(=O)[C@H](Cc1ccccc1)NC(=O)[C@@H](NC(=O)CNC(=O)[C@H](CCC(=O)O)NC(=O)[C@H](C)NC(=O)[C@H](Cc1c[nH]cn1)NC[C@H](C)N)[C@@H](C)O)[C@@H](C)O)C(C)C)C(=O)N[C@@H](C)C(=O)N[C@@H](Cc1c[nH]c2ccccc12)C(=O)N[C@@H](CC(C)C)C(=O)N[C@H](C(=O)N[C@@H](CCCCN)C(=O)NCC(=O)N[C@@H](CCCNC(=N)N)C(N)=O)C(C)C | 2.6
123 | CC[C@H](C)[C@H](NC(=O)[C@H](Cc1ccccc1)NC(=O)[C@H](CCC(=O)O)NC(=O)[C@H](CCCCN)NC(=O)[C@H](C)NC(=O)[C@H](C)NC(=O)[C@H](CCC(N)=O)NC(=O)CNC(=O)[C@H](CCC(=O)O)NC(=O)[C@H](CC(C)C)NC(=O)[C@H](Cc1ccc(O)cc1)NC(=O)[C@H](CO)NC(=O)[C@H](CO)NC(=O)[C@@H](NC(=O)[C@H](CC(=O)O)NC(=O)[C@H](CO)NC(=O)[C@@H](NC(=O)[C@H](Cc1ccccc1)NC(=O)[C@@H](NC(=O)CNC(=O)[C@H](CCC(=O)O)NC(=O)[C@H](C)NC(=O)[C@H](Cc1c[nH]cn1)NCc1ccc(C2(C(F)(F)F)N=N2)cc1)[C@@H](C)O)[C@@H](C)O)C(C)C)C(=O)N[C@@H](C)C(=O)N[C@@H](Cc1c[nH]c2ccccc12)C(=O)N[C@@H](CC(C)C)C(=O)N[C@H](C(=O)N[C@@H](CCCCN)C(=O)NCC(=O)N[C@@H](CCCNC(=N)N)C(N)=O)C(C)C | –
3200 | CC[C@H](C)[C@H](NC(=O)[C@H](Cc1ccccc1)NC(=O)[C@H](CCC(=O)O)NC(=O)[C@H](CCCCN)NC(=O)[C@H](C)NC(=O)[C@H](C)NC(=O)[C@H](CCC(N)=O)NC(=O)CNC(=O)[C@H](CCC(=O)O)NC(=O)[C@H](CC(C)C)NC(=O)[C@H](Cc1ccc(O)cc1)NC(=O)[C@H](CO)NC(=O)[C@H](CO)NC(=O)[C@@H](NC(=O)[C@H](CC(=O)O)NC(=O)[C@H](CO)NC(=O)[C@@H](NC(=O)[C@H](Cc1ccccc1)NC(=O)[C@@H](NC(=O)CNC(=O)[C@H](CCC(=O)O)NC(=O)[C@H](C)NC(=O)[C@H](Cc1c[nH]cn1)NC[C@@H](O)[C@@H](O)[C@H](O)[C@H](O)CO)[C@@H](C)O)[C@@H](C)O)C(C)C)C(=O)N[C@@H](C)C(=O)N[C@@H](Cc1c[nH]c2ccccc12)C(=O)N[C@@H](CC(C)C)C(=O)N[C@H](C(=O)N[C@@H](CCCCN)C(=O)NCC(=O)N[C@@H](CCCNC(=N)N)C(N)=O)C(C)C | –
3.7 | CC[C@H](C)[C@H](NC(=O)[C@H](Cc1ccccc1)NC(=O)[C@H](CCC(=O)O)NC(=O)[C@H](CCCCN)NC(=O)[C@H](C)NC(=O)[C@H](C)NC(=O)[C@H](CCC(N)=O)NC(=O)CNC(=O)[C@H](CCC(=O)O)NC(=O)[C@H](CC(C)C)NC(=O)[C@H](Cc1ccc(O)cc1)NC(=O)[C@H](CO)NC(=O)[C@H](CO)NC(=O)[C@@H](NC(=O)[C@H](CC(=O)O)NC(=O)[C@H](CO)NC(=O)[C@@H](NC(=O)[C@H](Cc1ccccc1)NC(=O)[C@@H](NC(=O)CNC(=O)[C@H](CCC(=O)O)NC(=O)[C@H](C)NC(=O)[C@H](Cc1c[nH]cn1)NCC(C)C)[C@@H](C)O)[C@@H](C)O)C(C)C)C(=O)N[C@@H](C)C(=O)N[C@@H](Cc1c[nH]c2ccccc12)C(=O)N[C@@H](CC(C)C)C(=O)N[C@H](C(=O)N[C@@H](CCCCN)C(=O)NCC(=O)N[C@@H](CCCNC(=N)N)C(N)=O)C(C)C [drawing 47] | –
4.4 | CC[C@H](C)[C@H](NC(=O)[C@H](Cc1ccccc1)NC(=O)[C@H](CCC(=O)O)NC(=O)[C@H](CCCCN)NC(=O)[C@H](C)NC(=O)[C@H](C)NC(=O)[C@H](CCC(N)=O)NC(=O)CNC(=O)[C@H](CCC(=O)O)NC(=O)[C@H](CC(C)C)NC(=O)[C@H](Cc1ccc(O)cc1)NC(=O)[C@H](CO)NC(=O)[C@H](CO)NC(=O)[C@@H](NC(=O)[C@H](CC(=O)O)NC(=O)[C@H](CO)NC(=O)[C@@H](NC(=O)[C@H](Cc1ccccc1)NC(=O)[C@@H](NC(=O)CNC(=O)[C@H](CCC(=O)O)NC(=O)[C@H](C)NC(=O)[C@H](Cc1c[nH]cn1)NCc1ccccc1)[C@@H](C)O)[C@@H](C)O)C(C)C)C(=O)N[C@@H](C)C(=O)N[C@@H](Cc1c[nH]c2ccccc12)C(=O)N[C@@H](CC(C)C)C(=O)N[C@H](C(=O)N[C@@H](CCCCN)C(=O)NCC(=O)N[C@@H](CCCNC(=N)N)C(N)=O)C(C)C [drawing 51] | –
